Laboratory results reported in US20150080380A1, “Therapeutic Uses” (GLAXOSMITHKLINE INTELLECTUAL PROPERTY DEVELOPMENT LIMITED, priority 2012, published 2015).

How the values were obtained:
[1] = test system: remyelination in cuprizone-induced demyelination; assay: Mouse cuprizone-induced demyelination model (Black-gold II staining); assay type: in vivo, C57BL/6 mice; conditions: forebrain and hindbrain; for myelin staining intensity of corpus callosum (percentage of mean density of naïve control): vehicle 15.75%; for demyelination area, corpus callosum: vehicle 54.81%
Description: The ability of the compound of Example 1 to enhance in vivo remyelination was determined with the mouse cuprizone-induced demyelination model.
The cuprizone model was conducted with the protocol as follows: the C57BL/6 mice at age of 8 weeks were fed with powder mouse food mixed freshly with 0.2% cuprizone (w/w) for 5 weeks to induce demyelination, then animals were allowed to recover (removal of cuprizone from the diet) and administrated with Example compound 1, at 0.3 mg/kg, 1 mg/kg, 3 mg/kg and 10 mg/kg body weight orally, b.i.d. for an additional 9 days prior to sacrifice. The brain samples were collected for assessment of myelination. The compound of Example 1 was formulated as a suspension using 1% aqueous methylcellulose as the vehicle.
Mice were deeply anesthetized and quickly perfused with 0.9% saline via the left cardiac ventricle to drain out blood. Whole brains were taken out and put into 15 ml tube with 4% paraformaldehyde (PFA) for post-fixation overnight, then soaked in 30% sucrose for 24-48 h to dehydrate. For frozen embedding, brains were immediately snap frozen in isopentane mixed with dry ice and then embedded in optimal cutting temperature solution (OCT). Whole brains were sectioned at coronal position from Bregma −2.46 mm to 1.18 mm according to mouse atlas by Paxinos and Franklin (The Mouse Brain in Stereotaxic Coordinates—3rd Edition) with cryostat (MICROM HM525) at a thickness of 30 μm. All sections were put into 96-well plate filled with anti-freezing solution [300 g sucrose dissolved in 500 ml 0.1 M PB solution (combine 11.505 g Na2HPO4 and 2.275 g NaH2PO4, dilute to 1 L with distilled water, adjust pH to 7.4) plus 300 ml Ethylene glycol and dilute to 1 L with distilled water]. For Black-gold II staining, 2 sections from forebrain around the bregma 0.86 mm and 2 sections from hindbrain around the bregma −1.58 mm for each mouse respectively were chosen according to mouse atlas by Paxinos and Franklin. Black-gold II staining for detection of myelination was performed according to a protocol adapted from the manufacturer (AG105, Millipore). Briefly, 2 free-floating sections from forebrain and 2 sections from hindbrain were rehydrated 2× in MilliQ water for 2 minutes each time and then stained in a 24-well plate with 0.3% Black-gold II solution at 60° C. for 20 minutes. The sections were monitored to determine the extent of staining. When the finest myelinated fibers were stained dark red to black, the staining process was stopped. The sections were then rinsed 2× in MilliQ water for 2 minutes each time. Then the sections were treated with Sodium thiosulfate solution (1%) for 6 minutes at 60° C. After rinsing in PBST (0.05% Triton X100 in PBS), sections were mounted on slides (Leica Microsystems Plus Slides) and further air-dried on 37° C. heating platform for 2-4 hours. The dehydrated slides were coverslipped with robotic coverslipper (CV5030, Leica). Stained slides were scanned by Scanscope (Aperio Technologies Inc.). Digital images of central corpus callosum or cortex close to cingulum were captured using ImageScope (Aperio Technologies Inc.) at the magnification of 20×.
Image-Pro 6.3 software (Media Cybernetics, Bethesda, Md. 20814 USA) was used for subsequent quantitative evaluation. Threshold was set to Black-gold II staining in each gated corpus callosum and held constant for images obtained at equal objectives and light intensities on slides that were processed. Two parameters were used here: area and IOD (Integrated Optical Density). For measurement of demyelination area, all digital images were set under the same colour range after converted to a greyscale value of 8. Demyelination area indicated by void of Black-gold staining and total area of central corpus callosum at 20× magnification were measured separately on each image. Mean demyelination area was calculated as: (demyelination area/total area of central corpus callosum)×100. […]

H3R = biological target: T1, H3R (Rattus norvegicus, UniProt Q9QYN8); assay: Histamine H3R functional inverse agonist assay with OPCs (cAMP assay); assay type: cell-based; conditions: 30 nM to 3 µM compound, Forskolin 3 µM, absence of H3R agonist
T1 construct: endogenous in cells; host or cells: oligodendrocyte precursor cells (OPCs), untransfected
Description: Histamine receptor 3 (H3R), expressed on cell surface, is negatively coupled to adenylyl cyclase, which stimulates the formation of cyclic AMP (cAMP). In the absence of histamine, the constitutively active H3R would inhibit intracellular level of cAMP. Inverse agonists of H3R, which block constitutive activity of H3R, thus would raise the cAMP level. The ability of Example compound 2 to inhibit constitutive activity of H3R was determined in a cellular cAMP assay.
For each compound being assayed, OPCs were seeded in PO coated 96-well plate at a density of 20000 cells/well, and cultured in BDM with bFGF (10 ng/ml Petrotech) and PDGF (10 ng/ml Petrotech) for 24 hours. The cells were first treated with different concentration of example compound (30 nM to […]) for 30 minutes. Then the cells were stimulated with Forskolin ([…], Sigma) in the presence of the example compound for 15 minutes. The cAMP concentrations were measured by the cAMP Chemiluminescent Immunoassay Kit (Invitrogen, Cat. No. C10557). The cells were lysed with lysis buffer (60 μL, Invitrogen Kit reagent) at 37° C. for 30 minutes. […] Chemiluminescence signal was measured in a SpectraMax M5 Multi-Mode Microplate Readers (Molecular Devices) for 1 second per well.

T1 sequence (Q9QYN8 whole entry): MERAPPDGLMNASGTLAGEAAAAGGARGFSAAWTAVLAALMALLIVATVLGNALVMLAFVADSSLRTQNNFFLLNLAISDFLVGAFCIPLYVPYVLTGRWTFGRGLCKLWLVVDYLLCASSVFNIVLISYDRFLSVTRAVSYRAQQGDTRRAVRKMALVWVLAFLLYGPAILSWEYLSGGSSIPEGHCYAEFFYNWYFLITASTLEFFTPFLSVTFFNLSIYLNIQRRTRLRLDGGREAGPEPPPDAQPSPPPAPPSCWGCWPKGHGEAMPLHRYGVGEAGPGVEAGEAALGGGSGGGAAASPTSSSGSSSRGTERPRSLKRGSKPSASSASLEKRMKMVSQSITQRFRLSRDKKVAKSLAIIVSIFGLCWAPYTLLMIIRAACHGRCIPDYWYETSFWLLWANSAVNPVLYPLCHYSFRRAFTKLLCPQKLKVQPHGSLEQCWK

| Structure (SMILES) | myelin staining intensity of corpus callosum (percentage of mean density of naïve control) ([1]; 0.3 mg/kg orally b.i.d. 9 days) | demyelination area, corpus callosum ([1]; 0.3 mg/kg orally b.i.d. 9 days) | myelin staining intensity of corpus callosum (percentage of mean density of naïve control) ([1]; 1 mg/kg orally b.i.d. 9 days) | demyelination area, corpus callosum ([1]; 1 mg/kg orally b.i.d. 9 days) | myelin staining intensity of corpus callosum (percentage of mean density of naïve control) ([1]; 3 mg/kg orally b.i.d. 9 days) | demyelination area, corpus callosum ([1]; 3 mg/kg orally b.i.d. 9 days) | myelin staining intensity of corpus callosum (percentage of mean density of naïve control) ([1]; 10 mg/kg orally b.i.d. 9 days, P<0.05) | demyelination area, corpus callosum ([1]; 10 mg/kg orally b.i.d. 9 days, P<0.01) | Forskolin-stimulated cAMP level in primary OPCs (H3R) |
| --- | --- | --- | --- | --- | --- | --- | --- | --- | --- |
| O=C1CCCN1c1ccc(Oc2ccc3c(c2)CCN(C2CCC2)CC3)nc1 [Example compound 1, 1-{6-[(3-cyclobutyl-2,3,4,5-tetrahydro-1H-3-benzazepin-7-yl)oxy]-3-pyridinyl}-2-pyrrolidinone] | 18.61%±1.01% | 46.82%±3.54% | 22.00%±3.41% | 38.45%±7.55% | 28.32%±7.76% | 41.22%±11.14% | 26.36%±3.10% | 27.62%±5.20% | – |
| c1cc2c(cc1-c1noc(CC3CCN(C4CCC4)CC3)n1)OCO2 [Example compound 2, 3-(benzo[d][1,3]dioxol-5-yl)-5-((1-cyclobutylpiperidin-4-yl)methyl)-1,2,4-oxadiazole] | – | – | – | – | – | – | – | – | increased |
